Results as given in patent US4399132A, “7-Beta-[alpha-syn-methoxyimino-alpha-(2-aminothiazol-4-yl)-aceta mido]-3-[(1,2,3-thiadiazol-5-ylthio)methyl]-3-cephem-4-carboxylic acid and C1 -C6 alkyl derivatives thereof” (American Cyanamid Company, priority 1981, dated 1983).
Values after ≈ are worked out from the molar mass of the structure shown. Read-outs that look alike come from different tables or passages of the source.

Tested on: Staphylococcus aureus
Experiment: Mueller-Hinton agar dilution method (MIC)
Format: cell-based
[1] = beta-lactamase negative, strain SSC 79-3, Table II, read-out: Minimal Inhibitory Concentration
[2] = beta-lactamase negative, strain SSC 79-5, Table II, read-out: Minimal Inhibitory Concentration
[3] = beta-lactamase negative, strain SSC 79-7, Table II, read-out: Minimal Inhibitory Concentration
[4] = beta-lactamase negative, strain SSC 79-9, Table II, read-out: Minimal Inhibitory Concentration
[5] = beta-lactamase negative, strain SSC 79-10, Table II, read-out: Minimal Inhibitory Concentration
[6] = beta-lactamase negative, strain SSC 79-11, Table II, read-out: Minimal Inhibitory Concentration
[7] = beta-lactamase negative, strain SSC 79-14, Table II, read-out: Minimal Inhibitory Concentration
[8] = beta-lactamase negative, strain SSC 79-15, Table II, read-out: Minimal Inhibitory Concentration
[9] = beta-lactamase negative, strain SSC 79-17, Table II, read-out: Minimal Inhibitory Concentration
[10] = beta-lactamase positive, strain SSC 79-24, Table II, read-out: Minimal Inhibitory Concentration
[11] = beta-lactamase positive, strain SSC 79-27, Table II, read-out: Minimal Inhibitory Concentration
[12] = beta-lactamase positive, strain SSC 79-28, Table II, read-out: Minimal Inhibitory Concentration
[13] = beta-lactamase positive, strain SSC 79-36, Table II, read-out: Minimal Inhibitory Concentration
[14] = beta-lactamase positive, strain SSC 79-38, Table II, read-out: Minimal Inhibitory Concentration
[15] = beta-lactamase positive, strain SSC 79-39, Table II, read-out: Minimal Inhibitory Concentration
[16] = beta-lactamase positive, strain SSC 79-41, Table II, read-out: Minimal Inhibitory Concentration
[17] = beta-lactamase positive, strain SSC 79-44, Table II, read-out: Minimal Inhibitory Concentration
[18] = beta-lactamase positive, strain SSC 79-47, Table II, read-out: Minimal Inhibitory Concentration

Row | Compound | MIC [1] [µg/mL] | MIC [2] [µg/mL] | MIC [3] [µg/mL] | MIC [4] [µg/mL] | MIC [5] [µg/mL] | MIC [6] [µg/mL] | MIC [7] [µg/mL] | MIC [8] [µg/mL] | MIC [9] [µg/mL] | MIC [10] [µg/mL] | MIC [11] [µg/mL] | MIC [12] [µg/mL] | MIC [13] [µg/mL] | MIC [14] [µg/mL] | MIC [15] [µg/mL] | MIC [16] [µg/mL] | MIC [17] [µg/mL] | MIC [18] [µg/mL] | further results
1 | CO/N=C(\C(=O)N[C@@H]1C(=O)N2C(C(=O)O)=C(COC(C)=O)CS[C@H]12)c1csc(N)n1 [Compound II] |  |  |  |  |  |  |  |  |  |  |  |  |  |  |  |  |  |  | MIC (read-out: Minimal Inhibitory Concentration, beta-lactamase negative, strain SSC 79-3, Table II): 0.5 µg/mL (≈ 1.1 µM); MIC (read-out: Minimal Inhibitory Concentration, beta-lactamase negative, strain SSC 79-5, Table II): 1 µg/mL (≈ 2.2 µM); MIC (read-out: Minimal Inhibitory Concentration, beta-lactamase negative, strain SSC 79-7, Table II): 0.5 µg/mL (≈ 1.1 µM); MIC (read-out: Minimal Inhibitory Concentration, beta-lactamase negative, strain SSC 79-9, Table II): 0.5 µg/mL (≈ 1.1 µM); MIC (read-out: Minimal Inhibitory Concentration, beta-lactamase negative, strain SSC 79-10, Table II): 0.5 µg/mL (≈ 1.1 µM); MIC (read-out: Minimal Inhibitory Concentration, beta-lactamase negative, strain SSC 79-11, Table II): 0.5 µg/mL (≈ 1.1 µM); MIC (read-out: Minimal Inhibitory Concentration, beta-lactamase negative, strain SSC 79-14, Table II): 2 µg/mL (≈ 4.39 µM); MIC (read-out: Minimal Inhibitory Concentration, beta-lactamase negative, strain SSC 79-15, Table II): 2 µg/mL (≈ 4.39 µM); MIC (read-out: Minimal Inhibitory Concentration, beta-lactamase negative, strain SSC 79-17, Table II): 1 µg/mL (≈ 2.2 µM); MIC (read-out: Minimal Inhibitory Concentration, beta-lactamase positive, strain SSC 79-24, Table II): 16 µg/mL (≈ 35.1 µM); MIC (read-out: Minimal Inhibitory Concentration, beta-lactamase positive, strain SSC 79-27, Table II): 1 µg/mL (≈ 2.2 µM); MIC (read-out: Minimal Inhibitory Concentration, beta-lactamase positive, strain SSC 79-28, Table II): 1 µg/mL (≈ 2.2 µM); MIC (read-out: Minimal Inhibitory Concentration, beta-lactamase positive, strain SSC 79-36, Table II): 1 µg/mL (≈ 2.2 µM); MIC (read-out: Minimal Inhibitory Concentration, beta-lactamase positive, strain SSC 79-38, Table II): 1 µg/mL (≈ 2.2 µM); MIC (read-out: Minimal Inhibitory Concentration, beta-lactamase positive, strain SSC 79-39, Table II): 1 µg/mL (≈ 2.2 µM); MIC (read-out: Minimal Inhibitory Concentration, beta-lactamase positive, strain SSC 79-41, Table II): 2 µg/mL (≈ 4.39 µM); MIC (read-out: Minimal Inhibitory Concentration, beta-lactamase positive, strain SSC 79-44, Table II): 1 µg/mL (≈ 2.2 µM); MIC (read-out: Minimal Inhibitory Concentration, beta-lactamase positive, strain SSC 79-47, Table II): 1 µg/mL (≈ 2.2 µM)
2 | CO/N=C(\C(=O)N[C@@H]1C(=O)N2C(C(=O)O)=CCS[C@H]12)c1csc(N)n1 [Compound IV, Ceftizoxime] | 1 (≈ 2.61 µM) | 1 (≈ 2.61 µM) | 0.5 (≈ 1.3 µM) | 1 (≈ 2.61 µM) | 1 (≈ 2.61 µM) | 0.5 (≈ 1.3 µM) | 4 (≈ 10.4 µM) | 1 (≈ 2.61 µM) | 1 (≈ 2.61 µM) | > 128 | 0.5 (≈ 1.3 µM) | 0.5 (≈ 1.3 µM) | 1 (≈ 2.61 µM) | 0.5 (≈ 1.3 µM) | 4 (≈ 10.4 µM) | 1 (≈ 2.61 µM) | 0.5 (≈ 1.3 µM) | 1 (≈ 2.61 µM) | 
3 | CO[C@@]1(NC(=O)C(C(=O)O)c2ccc(O)cc2)C(=O)N2C(C(=O)O)=C(CSc3nnnn3C)CO[C@@H]21 (stereo partly drawn) [Compound V, Moxalactam] | 2 (≈ 3.84 µM) | 8 (≈ 15.4 µM) | 2 (≈ 3.84 µM) | 2 (≈ 3.84 µM) | 2 (≈ 3.84 µM) | 2 (≈ 3.84 µM) | 4 (≈ 7.69 µM) | 8 (≈ 15.4 µM) | 4 (≈ 7.69 µM) | 32 (≈ 61.5 µM) | 4 (≈ 7.69 µM) | 4 (≈ 7.69 µM) | 4 (≈ 7.69 µM) | 2 (≈ 3.84 µM) | 4 (≈ 7.69 µM) | 4 (≈ 7.69 µM) | 2 (≈ 3.84 µM) | 4 (≈ 7.69 µM) | 
4 | CCN1CCN(C(=O)N[C@@H](C(=O)N[C@@H]2C(=O)N3C(C(=O)O)=C(CSc4nnnn4C)CS[C@H]23)c2ccc(O)cc2)C(=O)C1=O [Compound VII, Cefaperazone] | 0.5 (≈ 0.774 µM) | 2 (≈ 3.1 µM) | 0.5 (≈ 0.774 µM) | 0.5 (≈ 0.774 µM) | 0.5 (≈ 0.774 µM) | 0.25 (≈ 0.387 µM) | 2 (≈ 3.1 µM) | 2 (≈ 3.1 µM) | 1 (≈ 1.55 µM) | 128 (≈ 198 µM) | 1 (≈ 1.55 µM) | 2 (≈ 3.1 µM) | 2 (≈ 3.1 µM) | 1 (≈ 1.55 µM) | 2 (≈ 3.1 µM) | 2 (≈ 3.1 µM) | 1 (≈ 1.55 µM) | 2 (≈ 3.1 µM) | 

Continued by falling MIC [1], values first:

Row | MIC [1] [µg/mL] | MIC [2] [µg/mL] | MIC [3] [µg/mL] | MIC [4] [µg/mL] | MIC [5] [µg/mL] | MIC [6] [µg/mL] | MIC [7] [µg/mL] | MIC [8] [µg/mL] | MIC [9] [µg/mL] | MIC [10] [µg/mL] | MIC [11] [µg/mL] | MIC [12] [µg/mL] | MIC [13] [µg/mL] | MIC [14] [µg/mL] | MIC [15] [µg/mL] | MIC [16] [µg/mL] | MIC [17] [µg/mL] | MIC [18] [µg/mL] | Compound | further results
5 | 2 (≈ 4.68 µM) | 2 (≈ 4.68 µM) | 1 (≈ 2.34 µM) | 1 (≈ 2.34 µM) | 1 (≈ 2.34 µM) | 1 (≈ 2.34 µM) | 2 (≈ 4.68 µM) | 4 (≈ 9.36 µM) | 2 (≈ 4.68 µM) | 16 (≈ 37.4 µM) | 2 (≈ 4.68 µM) | 2 (≈ 4.68 µM) | 2 (≈ 4.68 µM) | 2 (≈ 4.68 µM) | 4 (≈ 9.36 µM) | 4 (≈ 9.36 µM) | 2 (≈ 4.68 µM) | 2 (≈ 4.68 µM) | CO[C@@]1(NC(=O)Cc2cccs2)C(=O)N2C(C(=O)O)=C(COC(N)=O)CS[C@@H]21 [Compound VI, Cefoxitin] | 
6 | 1 (≈ 1.95 µM) | 4 (≈ 7.82 µM) | 1 (≈ 1.95 µM) | 2 (≈ 3.91 µM) | 1 (≈ 1.95 µM) | 1 (≈ 1.95 µM) | 4 (≈ 7.82 µM) | 4 (≈ 7.82 µM) | 2 (≈ 3.91 µM) | 32 (≈ 62.6 µM) | 2 (≈ 3.91 µM) | 2 (≈ 3.91 µM) | 2 (≈ 3.91 µM) | 2 (≈ 3.91 µM) | 4 (≈ 7.82 µM) | 4 (≈ 7.82 µM) | 2 (≈ 3.91 µM) | 2 (≈ 3.91 µM) | CO/N=C(\C(=O)N[C@@H]1C(=O)N2C(C(=O)O)=C(CSc3nnnn3C)CS[C@H]12)c1csc(N)n1 [Compound III, Cefmenoxime] | 
